Source: ChEMBL document CHEMBL1153700, “Synthesis and SAR of novel, non-MPEP chemotype mGluR5 NAMs identified by functional HTS” (Bioorg Med Chem Lett, 2009)

Legend:
[1] = molecular target: Metabotropic glutamate receptor 5 (Rattus norvegicus, UniProt P31424); experiment: Antagonist activity at rat mGluR5 expressed in human HEK293A cells assessed as inhibition of glutamate-induced calcium flux; type: functional, cell-based, HEK293-A
[2] = molecular target: Metabotropic glutamate receptor 5 (Rattus norvegicus) (UniProt P31424); experiment: Antagonist activity at rat mGluR5 expressed in human HEK293A cells assessed as inhibition of glutamate-induced calcium flux relative to glutamate; type: functional, cell-based; conditions: HEK293-A
Sequence of Metabotropic glutamate receptor 5 (Rattus norvegicus) (P31424 21-1203 limits assumed): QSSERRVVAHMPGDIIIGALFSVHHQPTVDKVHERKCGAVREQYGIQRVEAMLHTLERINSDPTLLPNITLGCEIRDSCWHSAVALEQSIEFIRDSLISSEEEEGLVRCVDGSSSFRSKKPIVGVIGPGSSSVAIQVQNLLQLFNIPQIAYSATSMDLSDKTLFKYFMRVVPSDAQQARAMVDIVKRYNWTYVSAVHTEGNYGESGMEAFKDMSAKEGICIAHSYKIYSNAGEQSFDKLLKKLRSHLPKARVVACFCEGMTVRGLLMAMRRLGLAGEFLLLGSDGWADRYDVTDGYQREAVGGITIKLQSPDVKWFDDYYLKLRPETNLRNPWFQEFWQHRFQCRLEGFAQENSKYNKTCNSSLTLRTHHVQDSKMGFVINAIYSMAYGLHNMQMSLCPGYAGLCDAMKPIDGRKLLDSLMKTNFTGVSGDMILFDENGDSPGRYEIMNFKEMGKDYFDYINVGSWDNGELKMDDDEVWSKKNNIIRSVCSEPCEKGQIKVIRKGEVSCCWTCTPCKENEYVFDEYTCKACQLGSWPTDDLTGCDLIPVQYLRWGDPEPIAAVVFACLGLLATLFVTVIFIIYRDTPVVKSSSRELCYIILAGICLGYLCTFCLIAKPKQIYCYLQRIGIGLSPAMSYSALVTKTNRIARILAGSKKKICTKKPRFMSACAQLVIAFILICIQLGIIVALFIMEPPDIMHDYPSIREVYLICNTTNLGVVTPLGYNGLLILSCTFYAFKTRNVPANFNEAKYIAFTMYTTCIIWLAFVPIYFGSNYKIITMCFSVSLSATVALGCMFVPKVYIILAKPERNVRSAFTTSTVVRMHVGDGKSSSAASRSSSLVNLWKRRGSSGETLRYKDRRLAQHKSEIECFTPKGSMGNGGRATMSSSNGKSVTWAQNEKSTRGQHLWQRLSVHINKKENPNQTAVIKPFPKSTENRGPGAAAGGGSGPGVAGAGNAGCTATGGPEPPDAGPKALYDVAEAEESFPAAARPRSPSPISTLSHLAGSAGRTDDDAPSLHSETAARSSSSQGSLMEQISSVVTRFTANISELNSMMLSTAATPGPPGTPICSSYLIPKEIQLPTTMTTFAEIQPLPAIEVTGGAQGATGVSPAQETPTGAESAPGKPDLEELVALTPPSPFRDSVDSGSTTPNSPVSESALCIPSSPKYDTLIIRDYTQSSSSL

[3] = molecular target: Metabotropic glutamate receptor 5 (Homo sapiens, UniProt P41594); experiment: Antagonist activity at mGluR5; type: functional
Sequence of Metabotropic glutamate receptor 5 (Homo sapiens, UniProt P41594) (P41594 whole entry): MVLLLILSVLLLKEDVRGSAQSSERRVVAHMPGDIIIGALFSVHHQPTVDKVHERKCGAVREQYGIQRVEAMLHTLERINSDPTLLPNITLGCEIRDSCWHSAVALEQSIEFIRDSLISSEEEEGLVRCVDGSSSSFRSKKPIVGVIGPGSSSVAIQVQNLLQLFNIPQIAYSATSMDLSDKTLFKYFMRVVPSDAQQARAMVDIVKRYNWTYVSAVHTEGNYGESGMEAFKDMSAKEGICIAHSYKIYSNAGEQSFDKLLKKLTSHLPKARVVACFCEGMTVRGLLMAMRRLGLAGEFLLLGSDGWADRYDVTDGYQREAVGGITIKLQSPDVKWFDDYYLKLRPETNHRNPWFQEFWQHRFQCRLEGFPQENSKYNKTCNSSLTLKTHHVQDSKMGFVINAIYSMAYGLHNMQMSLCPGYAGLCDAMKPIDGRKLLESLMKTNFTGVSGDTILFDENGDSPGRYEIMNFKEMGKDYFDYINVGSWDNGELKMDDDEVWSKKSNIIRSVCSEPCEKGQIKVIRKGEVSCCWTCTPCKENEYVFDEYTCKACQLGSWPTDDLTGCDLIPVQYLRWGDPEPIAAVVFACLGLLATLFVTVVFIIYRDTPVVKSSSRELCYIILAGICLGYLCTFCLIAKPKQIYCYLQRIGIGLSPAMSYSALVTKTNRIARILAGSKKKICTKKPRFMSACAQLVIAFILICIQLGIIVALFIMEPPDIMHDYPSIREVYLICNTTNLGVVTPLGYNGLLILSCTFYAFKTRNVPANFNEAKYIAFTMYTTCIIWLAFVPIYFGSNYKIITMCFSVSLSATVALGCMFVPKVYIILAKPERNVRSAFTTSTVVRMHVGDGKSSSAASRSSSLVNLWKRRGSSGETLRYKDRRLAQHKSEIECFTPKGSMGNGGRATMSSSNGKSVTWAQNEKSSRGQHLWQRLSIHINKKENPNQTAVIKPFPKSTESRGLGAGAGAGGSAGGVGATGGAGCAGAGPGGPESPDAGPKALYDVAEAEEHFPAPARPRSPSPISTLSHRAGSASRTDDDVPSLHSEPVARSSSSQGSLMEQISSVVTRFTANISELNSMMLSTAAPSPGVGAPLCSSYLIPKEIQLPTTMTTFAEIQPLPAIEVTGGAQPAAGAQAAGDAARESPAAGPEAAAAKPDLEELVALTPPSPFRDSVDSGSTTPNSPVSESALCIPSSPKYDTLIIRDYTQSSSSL

Sequence of Metabotropic glutamate receptor 5 (Rattus norvegicus, UniProt P31424) (P31424 whole entry): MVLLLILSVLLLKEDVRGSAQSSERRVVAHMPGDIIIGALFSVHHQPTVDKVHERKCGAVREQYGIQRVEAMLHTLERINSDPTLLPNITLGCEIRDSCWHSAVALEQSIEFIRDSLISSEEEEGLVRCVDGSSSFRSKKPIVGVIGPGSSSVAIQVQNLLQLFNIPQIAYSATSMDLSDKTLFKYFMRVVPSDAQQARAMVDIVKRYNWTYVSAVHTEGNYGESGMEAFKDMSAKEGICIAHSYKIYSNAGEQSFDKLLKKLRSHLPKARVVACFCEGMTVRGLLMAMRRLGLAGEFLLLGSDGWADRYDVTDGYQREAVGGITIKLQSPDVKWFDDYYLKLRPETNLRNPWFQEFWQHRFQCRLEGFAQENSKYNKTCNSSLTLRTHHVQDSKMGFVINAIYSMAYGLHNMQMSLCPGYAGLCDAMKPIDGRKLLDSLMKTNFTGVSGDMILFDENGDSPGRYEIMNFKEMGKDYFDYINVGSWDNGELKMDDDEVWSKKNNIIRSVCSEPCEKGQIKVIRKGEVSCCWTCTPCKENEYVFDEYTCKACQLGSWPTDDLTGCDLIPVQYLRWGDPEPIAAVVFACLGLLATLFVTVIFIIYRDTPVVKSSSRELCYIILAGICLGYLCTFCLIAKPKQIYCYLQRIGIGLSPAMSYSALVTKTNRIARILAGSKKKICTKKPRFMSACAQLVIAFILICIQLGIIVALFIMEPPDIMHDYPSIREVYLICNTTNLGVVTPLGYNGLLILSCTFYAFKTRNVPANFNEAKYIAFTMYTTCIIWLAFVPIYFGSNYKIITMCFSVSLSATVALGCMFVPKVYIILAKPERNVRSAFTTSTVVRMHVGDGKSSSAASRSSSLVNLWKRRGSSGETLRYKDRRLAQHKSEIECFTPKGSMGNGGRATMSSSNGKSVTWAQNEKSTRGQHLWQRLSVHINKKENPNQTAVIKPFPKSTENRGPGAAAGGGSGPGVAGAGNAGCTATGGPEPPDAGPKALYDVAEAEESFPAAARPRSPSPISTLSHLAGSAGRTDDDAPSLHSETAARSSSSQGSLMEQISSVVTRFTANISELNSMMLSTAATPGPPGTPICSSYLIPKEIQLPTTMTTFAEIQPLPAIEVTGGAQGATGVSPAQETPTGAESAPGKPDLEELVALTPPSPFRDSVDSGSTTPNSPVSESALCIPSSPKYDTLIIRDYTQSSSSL

Compound	IC50 [1]	% Glu Max [2]	IC50 [3]
O=C(Nc1cccc(Cl)c1)c1cccc(N2C(=O)c3ccccc3C2=O)c1	1.78 µM	26.4%	–
O=C(Nc1cccc(O)c1)c1cccc(N2C(=O)c3ccccc3C2=O)c1	7.79 µM	48.1%	–
COc1ccccc1C(=O)Nc1cccc(NC(=O)C2CCCC2)c1	> 30 µM	–	–
COc1ccccc1C(=O)Nc1cccc(NC(=O)c2ccc(Cl)cc2)c1	> 30 µM	–	–
CC(=O)Nc1cccc(NC(=O)c2cccc(Cl)c2)c1	7.97 µM	39.6%	–
COc1ccccc1C(=O)Nc1cccc(NC(=O)C2CCC2)c1	> 30 µM	–	–
COc1ccccc1C(=O)Nc1cccc(NC(=O)C(C)C)c1	> 30 µM	–	–
COc1ccccc1C(=O)Nc1cccc(NC(=O)c2cccc(C#N)c2)c1	1.8 µM	3.22%	–
O=C(Nc1ccccn1)c1cccc(N2C(=O)c3ccccc3C2=O)c1	1.26 µM	59.5%	–
COc1ccccc1C(=O)Nc1cccc(NC(=O)c2cccc(C(F)(F)F)c2)c1	10.6 µM	26.1%	–
O=C(Nc1ccccc1F)c1cccc(N2C(=O)c3ccccc3C2=O)c1	1.05 µM	49.9%	–
O=C(Nc1cccc(NC(=O)C2CCC2)c1)c1cccc(Cl)c1	5.27 µM	44%	–
COCC(=O)Nc1cccc(NC(=O)c2ccccc2OC)c1	> 30 µM	–	–
COc1cc(NC(=O)c2cccc(N3C(=O)c4ccccc4C3=O)c2)cc(OC)c1	3.58 µM	76.2%	–
O=C(Nc1cccc(NC(=O)C23CC4CC(CC(C4)C2)C3)c1)c1cccc(Cl)c1	> 30 µM	–	–
O=C(Nc1cccc(NC(=O)c2cccc(C(F)(F)F)c2)c1)c1cccc(Cl)c1	> 30 µM	–	–
COc1ccccc1C(=O)Nc1cccc(NC(=O)Cc2ccccc2)c1	> 30 µM	–	–
COc1ccccc1C(=O)Nc1cccc(NC(=O)c2cc(Cl)cc(Cl)c2)c1	> 30 µM	–	–
O=C(Nc1cccc(NC(=O)c2ccc(Cl)c(Cl)c2)c1)c1cccc(Cl)c1	> 30 µM	–	–
COc1ccccc1NC(=O)c1cccc(N2C(=O)c3ccccc3C2=O)c1	> 30 µM	86%	–
COc1ccccc1C(=O)Nc1cccc(NC(=O)c2ccc3c(c2)OCO3)c1	> 30 µM	–	–
COc1ccccc1C(=O)Nc1cccc(NC(=O)c2cccc(C)c2)c1	1.35 µM	3.82%	–
COc1ccccc1C(=O)Nc1cccc(NC(=O)c2ccc(Cl)c(Cl)c2)c1	> 30 µM	–	–
COCC(=O)Nc1cccc(NC(=O)c2cccc(Cl)c2)c1	> 30 µM	–	–
O=C(Nc1cccc(NC(=O)C2CCCC2)c1)c1cccc(Cl)c1	> 30 µM	–	–
O=C(Nc1ccc(F)cc1)c1cccc(N2C(=O)c3ccccc3C2=O)c1	> 30 µM	73%	–

Compound	IC50 [1]	% Glu Max [2]	IC50 [3]
O=C(NC1CC2CCC1C2)c1cccc(N2C(=O)c3ccccc3C2=O)c1 (stereo not drawn)	> 30 µM	71%	–
COc1ccccc1C(=O)Nc1cccc(NC(C)=O)c1	> 30 µM	–	–
O=C(Nc1cccc(NC(=O)c2ccccc2Cl)c1)c1cccc(Cl)c1	2.62 µM	8.78%	–
O=C(NC1CC1)c1cccc(N2C(=O)c3ccccc3C2=O)c1	> 30 µM	68%	–
O=C(Nc1cccnc1)c1cccc(N2C(=O)c3ccccc3C2=O)c1	> 30 µM	86%	–
COc1ccccc1C(=O)Nc1cccc(NC(=O)C2CC2)c1	> 30 µM	–	–
COc1ccccc1C(=O)Nc1cccc(NC(=O)C2CCCCC2)c1	> 30 µM	–	–
O=C(Nc1cccc(NC(=O)c2cccc(Cl)c2)c1)c1ccc(Cl)cc1	> 30 µM	–	–
O=C(Nc1cccc(NC(=O)C2CC2c2ccccc2)c1)c1cccc(Cl)c1 (stereo not drawn)	> 30 µM	–	–
O=C(Nc1cccc(NC(=O)c2cccc(Cl)c2)c1)c1ccc(F)cc1	> 30 µM	–	–
COc1ccccc1C(=O)Nc1cccc(NC(=O)c2cccc(Cl)c2)c1	0.88 µM	2.6%	1.1 µM
COc1ccccc1C(=O)Nc1cccc(NC(=O)C23CC4CC(CC(C4)C2)C3)c1	> 30 µM	–	–
O=C(Nc1cccc(NC(=O)c2cccc(Cl)c2)c1)c1cccc(F)c1	> 30 µM	–	–
Cc1cccc(C(=O)Nc2cccc(NC(=O)c3cccc(Cl)c3)c2)c1	> 30 µM	–	–
COc1ccccc1C(=O)Nc1cccc(NC(=O)C2CC2c2ccccc2)c1 (stereo not drawn)	> 30 µM	–	–
O=C(Cc1ccccc1)Nc1cccc(NC(=O)c2cccc(Cl)c2)c1	> 30 µM	–	–
COc1ccccc1C(=O)Nc1cccc(NC(=O)c2ccco2)c1	> 30 µM	–	–
O=C(Nc1cccc(NC(=O)c2ccco2)c1)c1cccc(Cl)c1	4.51 µM	49.3%	–
COc1ccccc1C(=O)Nc1cccc(NC(=O)c2ccccc2Cl)c1	> 30 µM	–	–
O=C(Nc1cccc(NC(=O)c2cccc(Cl)c2)c1)c1cccc(Cl)c1	> 30 µM	–	–
COc1ccccc1C(=O)Nc1cccc(NC(=O)c2ccc(F)cc2)c1	> 30 µM	–	–
O=C(Nc1cccc(NC(=O)c2ccc3c(c2)OCO3)c1)c1cccc(Cl)c1	> 30 µM	–	–
CC(C)C(=O)Nc1cccc(NC(=O)c2cccc(Cl)c2)c1	5.82 µM	26.9%	–
COc1ccccc1C(=O)Nc1cccc(NC(=O)c2cccc(F)c2)c1	6.48 µM	25.8%	–
O=C(Nc1cccc(NC(=O)C2CC2)c1)c1cccc(Cl)c1	2.23 µM	32.3%	–
